{"source": "patent US12565499B2", "about": "“Compounds and methods” (INTRA-CELLULAR THERAPIES, INC., priority 2012, dated 2026)", "origin": "cited, not measured here", "tested_on": "mice", "conditions": "chronic administration; Berton et al., Science (2006) 311:864-868"}
{"smiles": "CNCCC(Oc1ccc(C(F)(F)F)cc1)c1ccccc1", "note": "(stereo not shown) [fluoxetine]", "values": [{"measurement": "reversal of isolation behavior in the social defeat/resident intruder model", "value": "reversed"}]}
